How the values were obtained:
Assay type in all cases: in vivo
[1] = tested on: DENV2; assay: DENV viral load by qRT-PCR in WT mice
Protocol: (A) WT mice were treated with vehicle or ketanserin (8 mg/kg) prior to subcutaneous footpad injection with 2×10^5 pfu of DENV or PBS. At 72 h post-infection, popliteal lymph nodes were isolated for viral quantification by qRT-PCR. […] (B-C) WT mice were infected with DENV2 (1×10^6 pfu, i.p.) and treated daily with either 8 mg/kg of ketanserin or vehicle. […] (C) At 1 day post-infection, the spleen was harvested and DENV2 was quantified by qRT-PCR.
Since a concern with inhibition of host factors would be the effect on viral replication, the levels of viremia following DENV infection were measured. WT mice were treated with either ketanserin or vehicle prior to a subcutaneous footpad injection. The draining lymph nodes were then harvested to determine if targeting 5HT2A receptors had any influence on viral load. […] Subsequently it was determined whether targeting serotonin would have an effect on viral load in systemic infection. WT mice were treated with either ketanserin or vehicle following DENV systemic infection via intraperitoneal injection. Serum was isolated at days 1 and 3 post-infection and viremia quantified. […] The second model of severe DENV infection, the IFN-α,β, γ-R^−/− (IFNR-KO) mice, were subsequently infected and treated with either ketanserin or vehicle. These mice are known to have higher levels of viremia than WT mice.

[2] = tested on: DENV2-infected mice; assay: Platelet counts (thrombocytopenia) in DENV2-infected WT mice; conditions: 10^6 pfu DENV2 IP, 24 hours post-infection, n=5
Protocol: Platelet counts of DENV2 infected mice. Mice were infected via intraperitoneal route (IP) with 10^6 plaque forming units (pfu) and were given either vehicle (1% DMSO) or ketanserin 8 mg/kg IP. Blood was taken via cheek bleed 24 hours post-infection and platelet counts were measured using an automated hematology analyzer. DENV2 infection induces thrombocytopenia, but ketanserin treatment is able to prevent thrombocytopenia (n=5). Mean values are presented and error bars represent the SEM. P values were determined by Student's unpaired t test; ***P<0.001, ****P<0.0001.
Platelet counts of DENV2 infected mice. Mice were infected IP with 10^6 pfu of DENV2 and were given either vehicle, the 5HT1A antagonist WAY-100135, or either of the 5HT2A antagonists, ketanserin and sarpogrelate. Blood was taken via cheek bleed 24 hours post-infection and platelet counts were measured using an automated hematology analyzer. DENV2 infection induced thrombocytopenia that was able to be prevented through administration of serotonin receptor antagonists (n=5). Mean values are presented and error bars represent the SEM. P values were determined by one-way ANOVA; ***p<0.001, ****P<0.0001.
WT mice were infected via intraperitoneal route (IP) with 10^6 plaque forming units (pfu) of DENV2 and were given either vehicle (1% DMSO) or ketanserin (8 mg/kg) IP. Blood was taken via cheek bleed 24 hours post-infection and platelet counts were measured using an automated hematology analyzer.
One limitation of the experimental protocol in Examples 10 and 11 is that the vehicle used to deliver ketanserin in mice, DMSO, can itself interfere with platelet aggregation [Rosenblum, W. I. & El-Sabban. F. Stroke 13, 35-39 (1982)]. This difference can be observed by comparing the severity of thrombocytopenia in dengue-infected mice between FIGS. 1 and 10. Accordingly, newer serotonin receptor antagonists that are more soluble in saline were tested, to determine whether a similar effect is seen even without the confounding effects of DMSO. Mice were infected IP with 10^6 pfu of DENV2 and were given either vehicle, the 5HT1A antagonist WAY-100135 (3 mg/kg), or one of the 5HT2A antagonists ketanserin (8 mg/kg) or sarpogrelate (3 mg/kg). Blood was taken via cheek bleed 24 hours post-infection and platelet counts were measured using an automated hematology analyzer.

[3] = tested on: DENV2-infected mice; assay: Platelet aggregation in peripheral blood smears of DENV2-infected WT mice; conditions: 10^6 pfu DENV2 IP, ketanserin 8 mg/kg IP 1 hour after infection, blood 24 hours post-infection, vs vehicle 1% DMSO
Protocol: Images depict peripheral blood smears from DENV2-infected mice. Mice were infected via intraperitoneal route (IP) with 10^6 pfu. (A) Mock infected mice. (B) DENV-infected mice treated with vehicle control IP. (C) DENV-infected mice given ketanserin 8 mg/kg IP. Blood was taken via cheek bleed 24 hours post-infection, smeared onto glass slides, stained with eosin and methylene blue and viewed under light microscopy using a 100× magnification lens. Dengue induces platelet aggregation, while administration of ketanserin prevents this. A few individual platelets are indicated by arrows; platelet aggregates are circled by dashed lines. Scale bar=10 μm.
To test whether ketanserin could block platelet aggregation and/or prevent thrombocytopenia, a mouse model of dengue infection was used. WT mice were infected via intraperitoneal route (IP) with 10^6 pfu of DENV2 and, after 1 hour, treated with vehicle (1% DMSO) or ketanserin (8 mg/kg) IP. Blood was taken via cheek bleed 24 hours post-infection, smeared onto glass slides, stained with eosin and methylene blue and viewed under light microscopy using a 100× magnification lens. […] Selected red blood cells (RBC), platelets (arrows) and platelet aggregates (dashed lines) are labeled.

In the case of `O=C(c1ccc(F)cc1)C1CCN(CCn2c(=O)[nH]c3ccccc3c2=O)CC1` [ketanserin, 3-[2-[4-(4-fluorobenzoyl)piperidin-1-yl]ethyl]-1H-quinazoline-2,4-dione], the “viral load in the spleen” value ([1]; DENV2 1×10^6 pfu i.p., ketanserin 8 mg/kg daily, 1 day post-infection) is reported as “did not affect viral load in the spleen”, the “serum viremia (DENV genome copy numbers)” value ([1]; DENV2 1×10^6 pfu i.p., ketanserin 8 mg/kg daily, days 1 and 3 post-infection, n=5) is reported as “no significant difference in serum DENV genome copy numbers at both time points” and the “viral load in the draining (popliteal) lymph node” value ([1]; ketanserin 8 mg/kg prior to subcutaneous footpad injection of 2×10^5 pfu DENV, 72 h post-infection) is reported as “did not affect viral load in the draining lymph node”. For the same compound, the “platelet counts (DENV2-induced thrombocytopenia)” value ([2]; WT mice, ketanserin 8 mg/kg IP, vehicle 1% DMSO) was “did not show significantly reduced platelets compared to control”, the “platelet counts (DENV2-induced thrombocytopenia)” value ([2]; mice, WAY-100135 3 mg/kg, ketanserin 8 mg/kg or sarpogrelate 3 mg/kg) was “prevented” and the “DENV-induced platelet aggregation in peripheral blood smears” value [3] was “prevented”.

Source: US20200352947A1, “USE OF SEROTONERGIC DRUGS TO TREAT VIRUS-INDUCED THROMBOCYTOPENIA” (NATIONAL UNIVERSITY OF SINGAPORE, priority 2017, published 2020)
